Where “and” joins values, the source holds several entries; their conditions need not be identical. Equal entries are not always repeated. Inconclusive results and toxic doses are left out. The calls were made as follows: active = survival T/C of 150% or more; inactive = T/C below 125% in these data.
System: P388 leukemia ip, CD2F1 mice, survival T/C
Test: NCI In Vivo Anticancer Drug Screen. Data for tumor model P388 Leukemia (intraperitoneal) in CD2F1 (CDF1) mice
Conditions: endpoint: median survival time, higher = longer survival
In short: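 Mice carrying the transplanted tumor received test compound or vehicle. Survival was recorded in each group, and the value is the treated-group measurement divided by that of the vehicle-treated control group.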

[1] = dose: 50.0 mg/kg/injection, schedule: Q01DX009 (ip), vehicle: saline with Tween-80
[2] = dose: 100.0 mg/kg/injection, schedule: Q01DX009 (ip), vehicle: saline with Tween-80
[3] = dose: 200.0 mg/kg/injection, schedule: Q01DX009 (ip), vehicle: saline with Tween-80
[4] = dose: 100.0 mg/kg/injection, schedule: Q01DX009 (ip), vehicle: saline
[5] = dose: 200.0 mg/kg/injection, schedule: Q01DX009 (ip), vehicle: saline
[6] = dose: 50.0 mg/kg/injection, schedule: Q01DX005 (ip), vehicle: Klucel (hydroxypropylcellulose) (HPC)
[7] = dose: 100.0 mg/kg/injection, schedule: Q01DX005 (ip), vehicle: Klucel (hydroxypropylcellulose) (HPC)
[8] = dose: 200.0 mg/kg/injection, schedule: Q01DX005 (ip), vehicle: Klucel (hydroxypropylcellulose) (HPC)
[9] = dose: 60.0 mg/kg/injection, schedule: Q01DX005 (ip), vehicle: saline with Tween-80
[10] = dose: 120.0 mg/kg/injection, schedule: Q01DX005 (ip), vehicle: saline with Tween-80
[11] = dose: 240.0 mg/kg/injection, schedule: Q01DX005 (ip), vehicle: saline with Tween-80
[12] = dose: 50.0 mg/kg/injection, schedule: Q01DX005 (ip), vehicle: saline with Tween-80

Measured: T/C

COC(=O)[C@@]12OC[C@]34[C@H]([C@@H](O)[C@@H]1O)[C@@]1(C)CC(=O)C(OC(=O)CC(=O)OC5=C(C)[C@@H]6C[C@H]7OC(=O)[C@H](OC(=O)/C=C(\C)C(C)C)[C@H]8[C@]9(C(=O)OC)OC[C@]78[C@H]([C@@H](O)[C@@H]9O)[C@@]6(C)CC5=O)=C(C)[C@@H]1C[C@H]3OC(=O)[C@H](OC(=O)/C=C(\C)C(C)C)[C@@H]24
active: dose: 1.5 mg/kg/injection, schedule: Q01DX009 (ip), vehicle: saline + Tween-80 + alcohol 165 % of control | dose: 3.0 mg/kg/injection, schedule: Q01DX009 (ip), vehicle: saline + Tween-80 + alcohol 163 % of control
inactive: dose: 0.19 mg/kg/injection, schedule: Q01DX009 (ip), vehicle: saline + Tween-80 + alcohol 121 % of control | dose: 0.37 mg/kg/injection, schedule: Q01DX005 (ip), vehicle: saline + Tween-80 + alcohol 119 % of control | dose: 0.38 mg/kg/injection, schedule: Q01DX005 (ip), vehicle: saline + Tween-80 + alcohol 110 % of control | dose: 0.38 mg/kg/injection, schedule: Q01DX009 (ip), vehicle: saline + Tween-80 + alcohol 120 % of control | dose: 0.75 mg/kg/injection, schedule: Q01DX005 (ip), vehicle: saline + Tween-80 + alcohol 114 % of control | dose: 0.75 mg/kg/injection, schedule: Q01DX009 (ip), vehicle: saline + Tween-80 + alcohol 124 % of control

O=C(/C=C/c1ccc(Cl)cc1)/C=C/c1ccc(Cl)cc1
inactive: [1] 91 % of control | [2] 86 % of control | [3] 93 % of control

CC1(C)COSOC1
inactive: dose: 100.0 mg/kg/injection, schedule: Q01DX001 (ip), vehicle: Klucel (hydroxypropylcellulose) (HPC) 98 % of control | dose: 200.0 mg/kg/injection, schedule: Q01DX001 (ip), vehicle: Klucel (hydroxypropylcellulose) (HPC) 104 % of control | dose: 400.0 mg/kg/injection, schedule: Q01DX001 (ip), vehicle: Klucel (hydroxypropylcellulose) (HPC) 104 % of control

CC(C)Nc1ncnc2[nH]ncc12
inactive: dose: 16.0 mg/kg/injection, schedule: Q01DX009 (ip), vehicle: Klucel (hydroxypropylcellulose) (HPC) 101 % of control | dose: 32.0 mg/kg/injection, schedule: Q01DX009 (ip), vehicle: Klucel (hydroxypropylcellulose) (HPC) 97 % of control | dose: 64.0 mg/kg/injection, schedule: Q01DX009 (ip), vehicle: Klucel (hydroxypropylcellulose) (HPC) 87 % of control

CN1C=NNC(=O)c2ccccc21
inactive: [1] 86 % of control | [2] 87 % of control | [3] 102 % of control

Cc1ccc(NC2OC(CO)C(O)C(O)C2O)cc1 (centres undefined)
inactive: dose: 50.0 mg/kg/injection, schedule: Q01DX009 (ip), vehicle: saline 104 % of control | [4] 111 % of control | [5] 98 % of control

CCN(CC)CCN1c2ccc(C)cc2Sc2ccc3ccccc3c21
inactive: dose: 50.0 mg/kg/injection, schedule: Q01DX005 (ip), vehicle: saline + Tween-80 + alcohol 112 % of control | dose: 100.0 mg/kg/injection, schedule: Q01DX005 (ip), vehicle: saline + Tween-80 + alcohol 102 % of control | dose: 200.0 mg/kg/injection, schedule: Q01DX005 (ip), vehicle: saline + Tween-80 + alcohol 114 % of control

O=C(N/N=C/c1cc(Cl)cc(Cl)c1[O-])c1ccccc1.O=C(N/N=C/c1cc(Cl)cc(Cl)c1[O-])c1ccccc1.[Cu+2]
inactive: dose: 100.0 mg/kg/injection, schedule: Q01DX001 (ip), vehicle: saline with Tween-80 94 % of control | dose: 200.0 mg/kg/injection, schedule: Q01DX001 (ip), vehicle: saline with Tween-80 92 % of control | dose: 400.0 mg/kg/injection, schedule: Q01DX001 (ip), vehicle: saline with Tween-80 104 % of control

c1ccc(-c2cnn3c(-c4ccccc4)cnnc23)cc1
inactive: [6] 99 % of control | [7] 99 % of control | [8] 99 % of control

O=C(CCOCCCOCCC(=O)OCCCBr)OCCCBr
inactive: [6] 102 % of control | [7] 98 % of control | [8] 98 % of control

Cc1ccccc1NC(CCl)=NC(C)(C)C
inactive: dose: 100.0 mg/kg/injection, schedule: Q04DX003 (ip), vehicle: saline with Tween-80 98 % of control | dose: 200.0 mg/kg/injection, schedule: Q04DX003 (ip), vehicle: saline with Tween-80 107 % of control | dose: 400.0 mg/kg/injection, schedule: Q04DX003 (ip), vehicle: saline with Tween-80 104 % of control

O=C1c2cccc3c2C2(O)c4c1cccc4C(=O)c1cccc(c12)C3=O
inactive: [1] 100 % of control | [2] 90 % of control

CCCCCOCc1cc(C)no1
inactive: [9] 104 % of control | [10] 109 % of control | [11] 104 % of control

CCN(CC)CCNc1ccc(COC(C)=O)c2sc3ccccc3c(=O)c12
inactive: dose: 6.25 mg/kg/injection, schedule: Q01DX005 (ip), vehicle: saline with Tween-80 109 % of control and 123 % of control | dose: 12.5 mg/kg/injection, schedule: Q01DX005 (ip), vehicle: saline with Tween-80 121 % of control | [12] 118 % of control

O=[N+]([O-])c1ccc(-c2cn(-c3ccc(Cl)cc3)cn2)cc1
inactive: [9] 96 % of control | [10] 88 % of control | [11] 88 % of control

Cc1cc[n+](Cc2cc3ccccc3nc2Cl)cc1C
inactive: dose: 3.75 mg/kg/injection, schedule: Q01DX005 (ip), vehicle: saline 110 % of control | dose: 7.5 mg/kg/injection, schedule: Q01DX005 (ip), vehicle: saline 93 % of control | dose: 15.0 mg/kg/injection, schedule: Q01DX005 (ip), vehicle: saline 104 % of control | dose: 30.0 mg/kg/injection, schedule: Q01DX005 (ip), vehicle: saline 107 % of control

CCCCC(NC(=O)OCc1ccccc1)C(=O)NC(CC(C)C)C(=O)O (centres undefined)
inactive: [6] 100 % of control | [7] 100 % of control | [8] 92 % of control

COC(=O)C1=C(C(=O)OC)CC1
inactive: [1] 109 % of control | [2] 109 % of control | [3] 117 % of control

COc1ccc(CS(=O)(=O)c2cnc(=O)[nH]c2N)cc1OC
inactive: dose: 100.0 mg/kg/injection, schedule: Q04DX002 (ip), vehicle: saline 93 % of control | dose: 200.0 mg/kg/injection, schedule: Q04DX002 (ip), vehicle: saline 101 % of control | dose: 400.0 mg/kg/injection, schedule: Q04DX002 (ip), vehicle: saline 93 % of control

COC1=CC(=O)C(C2(OC(C)C)OC(=O)C(Cl)=C2Cl)=CC1=O (centres undefined)
inactive: [12] 119 % of control | dose: 100.0 mg/kg/injection, schedule: Q01DX005 (ip), vehicle: saline with Tween-80 111 % of control

N=c1c2c(C(N)=O)cn(C3OC(CO)C(O)C3O)c2ncn1N (centres undefined)
active: dose: 50.0 mg/kg/injection, schedule: Q01DX005 (ip), vehicle: water 166 % of control

CC(=O)Nc1ccc(C(=O)/C=N\NC(N)=S)cc1
inactive: [1] 94 % of control | [2] 86 % of control | [3] 94 % of control

O=C1OCCN1c1cccc2ccccc12
inactive: [9] 95 % of control | [10] 96 % of control | [11] 93 % of control

N#Cc1c(=O)n(CCO)nc2c3ccccc3c3ccccc3c12
inactive: dose: 100.0 mg/kg/injection, schedule: Q04DX002 (ip), vehicle: saline with Tween-80 97 % of control | dose: 200.0 mg/kg/injection, schedule: Q04DX002 (ip), vehicle: saline with Tween-80 88 % of control

CCC1CC2CN(CCc3c([nH]c4ccccc34)C(C(=O)OC)(c3cc4c(cc3OC)N(C)C3C(O)(C(=O)OC)C(OC(C)=O)C5(CC)C=CCN6CCC43C65)C2)C1 (centres undefined)
active: dose: 0.25 mg/kg/injection, schedule: Q04DX003 (ip), vehicle: water 150 % of control | dose: 0.4 mg/kg/injection, schedule: Q01DX009 (ip), vehicle: Klucel (hydroxypropylcellulose) (HPC) 169 % of control | dose: 0.5 mg/kg/injection, schedule: Q04DX003 (ip), vehicle: water 160 % of control | dose: 0.8 mg/kg/injection, schedule: Q01DX009 (ip), vehicle: Klucel (hydroxypropylcellulose) (HPC) 169 % of control | dose: 1.0 mg/kg/injection, schedule: Q04DX003 (ip), vehicle: water 223 % of control | dose: 2.0 mg/kg/injection, schedule: Q04DX003 (ip), vehicle: water 232 % of control
inactive: dose: 0.05 mg/kg/injection, schedule: Q01DX009 (ip), vehicle: Klucel (hydroxypropylcellulose) (HPC) 123 % of control | dose: 0.06 mg/kg/injection, schedule: Q01DX009 (ip), vehicle: water 124 % of control | dose: 4.0 mg/kg/injection, schedule: Q01DX009 (ip), vehicle: water 115 % of control

CCOC(CNN)OCC
inactive: [4] 106 % of control | [5] 91 % of control

Source: PubChem BioAssay AID330 (DTP/NCI, 2004)
